Tests used:
[1] = Dark et al 1997 Cancer Research 57, 1829-1834; cited from earlier work
[2] = tested on: colchicine binding site on tubulin (purified tubulin protein from bovine brain); assay: Colchicine binding site competitive assay; details: dose of compound of 10 μM; relative to DMSO negative control
Procedure: (i) Colchicine Binding Site Competitive Assay Kit.
The ability of a ligand to bind specifically to the coichicine binding site on tubulin, an indicator of the vascular damaging activity, was assessed using a size exclusion chromatography assay kit from “Cytoskeleton” (1650 Fillmore St. #240, Denver, Colo. 80206, U.S.A.) Catalogue number of kit: BK023.
The following reagents were used: • tubulin buffer, to give 0.1 mM GTP, 0.5 mM MgCl2, 0.5 mM EGTA, 40 mM PIPES buffer at pH6.9 in the final reaction mix; • purified tubulin protein from bovine brain at 1 mg/ml in tubulin buffer; • 0.02 mM fluorescent coichicine in tubulin buffer [FITC (fluorescein isothiocyanate)-labelled]; • 2 mM colchicine in tubulin buffer; • 0.2 mM vinblastine in tubulin buffer; and • G-25 Sephadex™ Fine-particle size 34-138 μm.
The reaction was performed as follows: • 8 μl of test compound (dissolved in DMSO) was gently mixed with 150 μl of tubulin. This was then incubated at 37° C. for 30 minutes. […]
Chromatography was performed as follows, using chromatography columns filled with 3 mls of G-25 Sephadex™ Fine slurry. […] The fluorescence of the tubulin-containing fractions was detected on a spectrophotometer which excites at 485 nm and emits at 535 nm. […]
The degree of competition of colchicine binding by either unlabelled colchicine or test compound was calculated relative to the DMSO negative control.

[3] = tested on: HUVECs (Human umbilical cord vein endothelial cells); assay: HUVEC detachment assay; format: cell-based; details: for activity in the HUVEC cell detachment assay (detachment): dose of compound of 100 μM, 40 minutes, versus undosed control wells
Description: (ii) HUVEC Detachment Assay
Compounds according to the invention are expected to be able to damage vasculature, such as tumour vasculature, that has been newly formed whilst leaving normal, mature vasculature unaffected. The identification of compounds which can selectively, and preferably potently, damage newly-formed vasculature is desirable and is the subject of the present invention. The ability of the compounds to act in this way may be assessed, for example, using the procedure set out below:
This assay examined the effects of compounds on the adherence of HUVECs (Human umbilical cord vein endothelial cells) to tissue culture plasticware.
HUVECs (supplied by TCS Biologicals Ltd, Buckingham, United Kingdom) were plated in 0.2% gelatin-coated 12 well tissue culture plates at a concentration of 3×10^4 cells per well in 1 ml TCS medium. After 24 hours, when the cells were at ˜30% confluency, they were dosed with a compound under test for 40 minutes at 37° C., 5% CO2. After this incubation the medium containing drug was pipetted off, and the cells were then gently washed in 2 mls of HBSS (Hanks' Balanced Salt Solution purchased from Life Technologies Ltd, Paisley UK; Catalogue # 24020-083) to remove any detached cells. The washing solution was then removed, and the adherent cells remaining were trypsinised using 300 μl of 1×Trypsin-EDTA solution (Life Technologies Ltd, Paisley, UK; Catalogue # 43500-019) at ambient temperature for 2 minutes. The trypsinised cells were then made up to 1 ml with TCS Biologicals medium, then centrifuged at 2000 rpm for 2 minutes. The cell pellet was then resuspended in a volume of 50 μl of TCS Biologicals medium. Total cell counts were obtained by counting the cells on a haemocytometer. The amount of cell detachment was calculated by comparing the number of cells remaining attached following treatment with the number in undosed control wells.

Structure (SMILES): COc1ccc(/C=C\c2cc(OC)c(OC)c(OC)c2)cc1O [Combretastatin A4]
- anti-vascular effects at doses below the MTD [1]: greater than 10 times less than the MTD

Structure (SMILES): N#Cc1c(N)[nH]c2ccc(Sc3ccc(O)cc3)cc12 [Example 2, 5-(4-Hydroxyphenylsulphanyl)-2-amino-1H-indole-3-carbonitrile]
- activity in the colchicine binding site competitive assay (competition) [2]: 36%
- activity in the HUVEC cell detachment assay (detachment) [3]: 55%
- melting point: 241 to 242 °C

Structure (SMILES): COc1ccc(Sc2ccc3[nH]c(N)c(C#N)c3c2)cc1OC [Example 3, 5-(3,4-Dimethoxyphenylsulphanyl)-2-amino-1H-indole-3-carbonitrile]
- melting point: 169 to 173 °C

Structure (SMILES): Cc1cc2[nH]c(N)c(C#N)c2cc1F [Example 8, 6-methyl-5-fluoro-2-amino-1H-indole-3-carbonitrile]
- activity in the colchicine binding site competitive assay (competition) [2]: 31%
- activity in the HUVEC cell detachment assay (detachment) [3]: 34%

Structure (SMILES): COc1ccc(Oc2ccc3[nH]c(N)c(C#N)c3c2)cc1 [Example 9, 5-(4-Methoxyphenoxy)-2-amino-1H-indole-3-carbonitrile]
- melting point: 216 to 217 °C

Structure (SMILES): COc1cc(Oc2ccc3[nH]c(N)c(C#N)c3c2)cc(OC)c1OC [Example 11, 5-(3,4,5-Trimethoxyphenoxy)-2-amino-1H-indole-3-carbonitrile]
- melting point: 208 to 209 °C

Structure (SMILES): CC(=O)O[C@H]1C(=O)[C@@]2(C)[C@H]([C@H](OC(=O)c3ccccc3)[C@]3(O)C[C@H](OC(=O)[C@H](O)[C@@H](NC(=O)c4ccccc4)c4ccccc4)C(C)=C1C3(C)C)[C@]1(OC(C)=O)CO[C@@H]1C[C@@H]2O [Taxol, reference compound]
- cell detachment in the HUVEC detachment assay [3]: does not cause cell detachment

Structure (SMILES): COc1cc2c(c(OC)c1OC)-c1ccc(OC)c(=O)cc1[C@@H](NC(C)=O)CC2 [colchicine]
- doses at which vascular damaging activity is elicited, relative to the maximum tolerated dose (MTD) [1]: only elicit vascular damaging activity at doses approaching the maximum tolerated dose

Structure (SMILES): CC[C@]1(O)C[C@H]2CN(CCc3c([nH]c4ccccc34)[C@@](C(=O)OC)(c3cc4c(cc3OC)N(C=O)[C@H]3[C@@](O)(C(=O)OC)[C@H](OC(C)=O)[C@]5(CC)C=CCN6CC[C@]43[C@@H]65)C2)C1 [vincristine]
- doses at which vascular damaging activity is elicited, relative to the maximum tolerated dose (MTD) [1]: only elicit vascular damaging activity at doses approaching the maximum tolerated dose
